Assay results published in PMC5904360, “Soluble N-Ethylmaleimide-Sensitive Factor Attachment Protein Receptor-Derived Peptides for Regulation of Mast Cell Degranulation” (Frontiers in Immunology, 2018).

How the values were obtained:
[1] = topical glucocorticosteroid; cited from earlier work
NC/Nga mice = experiment: DNCB-induced atopic dermatitis-like skin lesions; type: in vivo, mouse; conditions: 0.3 and 3% peptide/day or 0.1% dexamethasone/day for 4 weeks, n = 10 per group (Figure 5D)
Text: Seven-week-old NC/Nga mice were purchased from the Shizuoka Laboratory Animal Center (Shizuoka, Japan) and allowed to adapt to the environment for a week prior to use. The procedures for the induction of atopic dermatitis-like symptoms in mice using 1-chloro-2,4-dinitro-benzene (DNCB) have been well described previously ([27]). Briefly, the dorsal hair of the mice was shaved 2 days before DNCB administration. For the induction of atopic dermatitis, 1% DNCB was applied to the dorsal skin of the mice twice weekly for 7 days and then 0.2% DNCB was applied thrice weekly for 21 days. The mice were divided into the following […] treatment groups (n = 10 per group): 0.3 and 3% Vp2N/day, 0.3 and 3% Vp8N/day, 0.1% dexamethasone/day, and vehicle only, dorsally administered from 9 to 13 weeks of age. As a negative control for atopic dermatitis, NC/Nga mice that were not treated with DNCB were maintained under pathogen-free conditions. Laboratory animal breeding management was based on the “Guide for the Care and Use of Laboratory Animals,” and all experiments were approved by the Institutional Animal Care and Use Committees of Gyeonggi Institute of Science & Technology.

SN23-Syn4-Vp8 complex = target: T1, SN23-Syn4-Vp8 complex (Rattus norvegicus, UniProt O70377+Q08850+Q9WUF4); experiment: Co-immunoprecipitation of SNARE complexes in activated RBL-2H3 cells, anti-SNAP-23 blot; type: cell-based; conditions: peptides added to the medium after A23187 pretreatment; IP of Vp8, blot anti-SNAP-23 (Figure 4C)
T1 construct: Lysates of RBL-2H3 cells; endogenous in cells; host or cells: RBL-2H3 (ATCC CRL-2256)
T1 sequence (Q08850 1-298): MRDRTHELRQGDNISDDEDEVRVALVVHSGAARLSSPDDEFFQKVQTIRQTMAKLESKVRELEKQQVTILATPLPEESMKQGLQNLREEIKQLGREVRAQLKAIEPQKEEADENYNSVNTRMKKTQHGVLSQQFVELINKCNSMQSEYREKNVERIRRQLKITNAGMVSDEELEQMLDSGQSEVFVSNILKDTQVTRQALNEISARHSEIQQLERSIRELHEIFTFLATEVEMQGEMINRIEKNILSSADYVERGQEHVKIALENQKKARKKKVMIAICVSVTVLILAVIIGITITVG
T1 sequence (O70377 1-210): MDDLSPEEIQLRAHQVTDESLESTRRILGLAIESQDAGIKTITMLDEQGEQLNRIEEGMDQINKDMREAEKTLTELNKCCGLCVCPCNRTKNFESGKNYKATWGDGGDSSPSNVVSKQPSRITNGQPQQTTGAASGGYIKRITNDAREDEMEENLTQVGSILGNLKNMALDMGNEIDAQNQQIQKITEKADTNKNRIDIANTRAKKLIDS
T1 sequence (Q9WUF4 1-100): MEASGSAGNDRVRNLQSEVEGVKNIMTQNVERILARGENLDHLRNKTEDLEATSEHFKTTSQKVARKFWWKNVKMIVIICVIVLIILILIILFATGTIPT
Method: (§1) Lysates of RBL-2H3 cells (0.5–1 × 10^6 cells), which were obtained by the addition of 1 mL lysis buffer (50 mM Tris–HCl, 150 mM NaCl, 1% Triton X-100™, 1 mM EDTA, pH 7.5) supplemented with a protease inhibitor cocktail (Calbiochem®, Merck Millipore, Billerica, MA, USA), were centrifuged at 13,000 g at 4°C to remove cell debris and precleared with 100 µL protein G Sepharose® (GE Healthcare) for 2 h at 4°C. The precleared lysates were incubated with antibodies against SNARE proteins (Syn4, SNAP-23, VAMP2, and VAMP8) for 2 h at 4°C for binding, and then the antibody–antigen complexes were precipitated by incubation with a protein G slurry overnight with constant shaking. After an extensive washing step with lysis buffer, an immunoblotting analysis was performed for the precipitates. The immunoprecipitated proteins and cell lysates were electrophoresed on 12% sodium dodecyl sulfate-polyacrylamide gel electrophoresis gels and then transferred to nitrocellulose blotting membranes (GE Healthcare). After blocking the membranes in TBST (10 mM Tris–HCl, 150 mM NaCl, and 0.05% Tween® 20, pH 8) containing 0.5% BSA and 5% skim milk for 1 h at room temperature, primary anti-SNAP-23 antibody (1:1,000 dilution) in TBST supplemented with 1% BSA and 0.01% sodium azide was added and incubated at 4°C overnight. The membranes were washed with TBST, treated with a horseradish peroxidase-conjugated secondary anti-mouse IgG antibody (A4416, Sigma-Aldrich), and visualized using enhanced chemiluminescence solution for the development of a luminescent signal.

SN23-Syn4-Vp2 complex = target: T2, SN23-Syn4-Vp2 complex (Rattus norvegicus, UniProt O70377+P63045+Q08850); experiment: as above; type: cell-based; conditions: peptides added to the medium after A23187 pretreatment; IP of Vp2, blot anti-SNAP-23 (Figure 4C)
T2 construct: Lysates of RBL-2H3 cells; endogenous in cells; host or cells: RBL-2H3 (ATCC CRL-2256)
Method: as §1

RBL-2H3 mast cells [2] = experiment: Degranulation assay, histamine release (enzyme immunoassay); type: cell-based, rat
RBL-2H3 mast cells [3] = experiment: Degranulation assay, β-hexosaminidase release; type: cell-based, rat
[4] = cells pretreated with A23187, sensitized with DNP-IgE, then PTD-conjugated peptide (Figure 4B)

T2 sequence (P63045 whole entry, one chain of several): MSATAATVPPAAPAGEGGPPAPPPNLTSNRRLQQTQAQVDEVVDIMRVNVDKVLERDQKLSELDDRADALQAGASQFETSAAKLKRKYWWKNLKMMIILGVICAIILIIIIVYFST

SNARE complex formation in cells (amount of SN23-Syn4-Vp8 complex) (SN23-Syn4-Vp8 complex) | SNARE complex formation in cells (amount of SN23-Syn4-Vp2 complex) (SN23-Syn4-Vp2 complex) | Compound | side effect [1] | ear thickness (NC/Nga mice) | inhibition of histamine release (RBL-2H3 mast cells [2]; PTD-conjugated peptide without SLO (LY294002 as positive control), DNP-IgE sensitized, DNP-BSA stimulation, no A23187 pretreatment, three independent experiments (Figure 2C)) | inhibition of histamine release after A23187 pretreatment (RBL-2H3 mast cells [2]; [4]) | reduction of β-hexosaminidase release (RBL-2H3 mast cells [3]; 10 µM PTD-fused peptide without SLO (LY294002 as positive control), DNP-BSA stimulation, no A23187 pretreatment, three independent experiments (Figure 2A gray bars, 2C)) | inhibition of β-hexosaminidase release after A23187 pretreatment (RBL-2H3 mast cells [3]; [4])
 |  | C[C@@H]1C[C@H]2[C@@H]3CCC4=CC(=O)C=C[C@]4(C)[C@@]3(F)[C@@H](O)C[C@]2(C)[C@@]1(O)C(=O)CO [Dexamethasone, dexamethasone, reference compound] | skin thinning | recovered the ear thickness to the normal range |  |  |  | 
did not inhibit | did not inhibit | O=c1cc(N2CCOCC2)oc2c(-c3ccccc3)cccc12 [LY294002, reference compound] |  |  | efficiently inhibited | efficiently inhibited | efficiently inhibited | efficiently inhibited
